Legend:
Format in all cases: cell-based, mouse
sAPPβ = test: Immunoprecipitation/Western blot of secreted sAPPβ from conditioned medium of Tg2576 ES cell derived neurons
From the text: (§1) The reliable detection of proteolytic derivatives of APP, including AP, is critical for a physiologically relevant cell based AD model. It was established that ES cell-derived pyramidal neurons express the major proteolytic enzymes mediating APP processing, β-site APP cleaving enzyme (BACE1) and presenilin 1 (PS1) (FIG. 2a). Endogenous APP, BACE1 and PS1 were abundantly detected in ES cell-derived pyramidal neurons at DIV 7, 14, 21. APP and BACE1 were not detected in ES cells, but PS1 was detectable consistent with it's described role in development (Wong, P. C. et al. Nature 387, 288-292 (1997)). […] In Tg2576 ES cell derived neurons, APP cleavage products were readily detectable. C-terminal APP fragments (CTFs) were detected in the neuronal lysate by Western blot analysis (FIG. 2b). Both human β- and α-secretase-derived secreted soluble APP (sAPPβ and sAPPα, respectively) were detected using immunoprecipitation of conditioned medium with sβsw and Aβ levels were detected in conditioned media using a human Aβ specific ELISA (FIG. 2b-e). […] Identical results were seen when neurons were infected with an APPsw Lenti virus and APP processing was analyzed (FIG. 6a-c). […]
(§2) Day 12-30 neurons were infected with a lentivirus carrying the Swedish variant of human APP (pLenti6/hAPPsw). […] Samples were separated using the NuPAGE gel system and Aβ peptides detected by quantitative Western blotting with 6E10. […]

Aβ42 = Aβ42 detection by human specific ELISA in conditioned medium of Tg2576 mES cell derived neurons; details: for secretion of Aβ42: Tg2576 ES cell derived neurons, conditioned medium; for IC50: optimized 96 well platform, 24 hours
From the text: (§3) The reliable detection of proteolytic derivatives of APP, including AP, is critical for a physiologically relevant cell based AD model. It was established that ES cell-derived pyramidal neurons express the major proteolytic enzymes mediating APP processing, β-site APP cleaving enzyme (BACE1) and presenilin 1 (PS1) (FIG. 2a). Endogenous APP, BACE1 and PS1 were abundantly detected in ES cell-derived pyramidal neurons at DIV 7, 14, 21. APP and BACE1 were not detected in ES cells, but PS1 was detectable consistent with it's described role in development (Wong, P. C. et al. Nature 387, 288-292 (1997)). To achieve robust and reproducible neuronal expression of human APP, ES cells from the inner cell mass of blastocysts were isolated from a well characterized mouse model of AD, Tg2576. Tg2576 mice express human APP, harboring the Swedish mutation (APPsw) under the control of hamster PrP promoter (Hsiao, K. et al. Science 274, 99-102 (1996)). […] In Tg2576 ES cell derived neurons, APP cleavage products were readily detectable. C-terminal APP fragments (CTFs) were detected in the neuronal lysate by Western blot analysis (FIG. 2b). Both human β- and α-secretase-derived secreted soluble APP (sAPPβ and sAPPα, respectively) were detected using immunoprecipitation of conditioned medium with sβsw and Aβ levels were detected in conditioned media using a human Aβ specific ELISA (FIG. 2b-e). […] Consistent with previous studies in cell models and mouse brain, CTFs resulting from APP cleavage, accumulated in response to γ-secretase inhibitor treatment (FIG. 2b). Identical results were seen when neurons were infected with an APPsw Lenti virus and APP processing was analyzed (FIG. 6a-c). […] Thus, these neurons are suitable for lentiviral mediated genetic manipulation studies.
(§4) To accommodate high-throughput screening, Aβ detection assays using the Tg2576 mES cell derived neurons were miniaturized for a 96 well platform. […] It was determined that the optimal cell density of 1.5×10^5 cells/cm^2 maximized the cell viability signal. […]
(§5) Day 12-30 neurons were infected with a lentivirus carrying the Swedish variant of human APP (pLenti6/hAPPsw). […] The levels of Aβ42 and Aβ40 in conditioned media were determined using sandwich ELISA (Invitrogen) according to the manufacturer's protocol. Total Aβ was detected by immunoprecipitating conditioned medium with 6E10 (Covance) or 7N22 (Invitrogen) antibodies overnight at 4° C. Samples were separated using the NuPAGE gel system and Aβ peptides detected by quantitative Western blotting with 6E10. Full-length APP was detected by Western blot analysis using 6E10 (Covance) or polyclonal antibody against the C-terminus of APP (APP-Ctmaxi) (Okada, H., et al. FASEB J. 24, 2783-94 (2010)). […]

Aβ40 = Aβ40 detection by human specific ELISA in conditioned medium of Tg2576 mES cell derived neurons; details: for secretion of Aβ40: Tg2576 ES cell derived neurons, conditioned medium; for IC50: optimized 96 well platform, 24 hours
From the text: as §3, §4, §5

sAPPα = test: Immunoprecipitation/Western blot of secreted sAPPα from conditioned medium of Tg2576 ES cell derived neurons
From the text: as §1, §2

APP-CTF = test: Western blot of C-terminal APP fragments (CTFs) in lysate of Tg2576 ES cell derived neurons; details: neuronal lysate
From the text: as §1, §2

| Structure (SMILES) | secretion of sAPPβ (sAPPβ) | secretion of Aβ42 (Aβ42) | IC50 (Aβ42) [nM] | secretion of Aβ40 (Aβ40) | IC50 (Aβ40) [nM] | level of sAPPα (sAPPα) | CTFs resulting from APP cleavage (APP-CTF) |
| --- | --- | --- | --- | --- | --- | --- | --- |
| C[C@@H](NC(=O)c1cc(C(=O)N[C@@H](Cc2ccccc2)[C@H](O)CNC2CC2)cc(N(C)S(C)(=O)=O)c1)c1ccccc1 [BACE inhibitor] | decreased | decreased | 7.8 | decreased | 44.7 |  |  |
| C[C@H](NC(=O)Cc1cc(F)cc(F)c1)C(=O)N[C@H]1N=C(c2ccccc2)c2ccccc2N(C)C1=O [Compound E] | without affecting | inhibited | 0.2 | inhibited | 0.2 | without affecting | accumulated |
| CC(C)C[C@H](CC(=O)NO)C(=O)N[C@H](C(=O)N[C@@H](C)C(=O)NCCN)C(C)(C)C [TAPI-2] |  |  |  |  |  | decrease |  |
